Measurements taken from US20030225152A1, “3-(Arylamino)methylene-1, 3-dihydro-2h-indol-2-ones as kinase inhibitors” (priority 2001, published 2003).

Tests used:
[1] = test system: VEGF induced increases in intracellular calcium levels in HUVEC (human umbilical vein endothelial cells); assay: VEGF Stimulated Ca++ Signal in vitro (FLIPR); type: cell-based; conditions: VEGF 5 ng/mL; for IC50: 0.01 to 10.0 μM
How it was run: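 HUVEC loaded with Fluo-4 (45 min, 37° C.), washed, then pre-incubated 30 min with compound (10 μM single dose or 0.01–10.0 μM; 0.1% DMSO) before 5 ng/mL VEGF. Fluorescence at 516 nm read by FLIPR; IC50 from % inhibition of max-min VEGF response.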

[2] = target: T1, cytoplasmic domain of the human VEGF receptor (VEGFR-2) (Homo sapiens, UniProt P35968); assay: KDR Assay; type: biochemical; conditions: His-VEGFR-2; 3.6 μM ATP
T1 construct: The cytoplasmic domain of the human VEGF receptor (VEGFR-2) was expressed as a Histidine-tagged fusion protein; Histidine tag
Protocol: The cytoplasmic domain of the human VEGF receptor (VEGFR-2) was expressed as a Histidine-tagged fusion protein following infection of insect cells using an engineered baculovirus. His-VEGFR-2 was purified to homogeneity, as determined by SDS-PAGE, using nickel resin chromatography. Kinase assays were performed in 96 well microtiter plates that were coated overnight with 30 μg of poly-Glu-Tyr (4:1) in 10 mM Phosphate Buffered Saline (PBS), pH 7.2-7.4. The plates were incubated with 1% BSA and then washed four times with PBS prior to starting the reaction. Reactions were carried out in 120 μL reaction volumes containing 3.6 μM ATP in kinase buffer (50 mM Hepes buffer pH 7.4, 20 mM MgCl2, 0.1 mM MnCl2 and 0.2 mM Na3VO4). Test compounds were reconstituted in 100% DMSO and added to the reaction to give a final DMSO concentration of 5%. Reactions were initiated by the addition 0.5 ng of purified protein. Following a ten minute incubation at 25° C., the reactions were washed four times with PBS containing 0.05% Tween-20. 100 μl of a monoclonal anti-phosphotyrosine antibody-peroxidase conjugate was diluted 1:10000 in PBS-Tween-20 and added to the wells for 30 minutes. Following four washes with PBS-Tween-20, 100 μl of O-phenylenediamine Dihydrochloride in Phosphate-citrate buffer, containing urea hydrogen peroxide, was added to the wells for 7 minutes as a colorimetric substrate for the peroxidase. The reaction was terminated by the addition of 100 μl of 2.5N H2SO4 to each well and read using a microplate ELISA reader set at 492 nm. IC50 values for compound inhibition were calculated directly from graphs of optical density (arbitrary units) versus compound concentration following subtraction of blank values.

T1 sequence (P35968 786-1356): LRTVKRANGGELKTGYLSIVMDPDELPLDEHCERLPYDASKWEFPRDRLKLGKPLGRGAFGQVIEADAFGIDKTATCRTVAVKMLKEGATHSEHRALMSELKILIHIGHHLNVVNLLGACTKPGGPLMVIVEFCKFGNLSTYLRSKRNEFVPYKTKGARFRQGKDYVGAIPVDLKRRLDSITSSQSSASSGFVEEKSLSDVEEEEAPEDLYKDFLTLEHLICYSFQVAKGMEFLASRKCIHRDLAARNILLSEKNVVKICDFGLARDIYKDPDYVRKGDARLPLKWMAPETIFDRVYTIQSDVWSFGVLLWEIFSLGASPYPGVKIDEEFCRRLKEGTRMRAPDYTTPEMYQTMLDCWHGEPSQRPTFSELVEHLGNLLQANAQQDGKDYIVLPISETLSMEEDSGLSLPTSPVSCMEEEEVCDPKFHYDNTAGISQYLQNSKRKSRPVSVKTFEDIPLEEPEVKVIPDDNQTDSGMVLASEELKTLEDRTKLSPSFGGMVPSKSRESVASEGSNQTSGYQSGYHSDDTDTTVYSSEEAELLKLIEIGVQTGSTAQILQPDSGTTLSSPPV

Row | Compound | IC50 [2] | inhibition at 10 µM ([1]; Homo sapiens) | IC50 ([1]; Homo sapiens) | IC50 [1]
1 | O=C1Nc2ccccc2C1=CNc1ccc2[nH]ncc2c1 [Example 32, 3-[(5-Indazolylamino)-methylene]-1,3-dihydro-indol-2-one] | 600 nM | 72.2% | 2660 nM | 
2 | COc1cc(NC=C2C(=O)Nc3ccccc32)cc(OC)c1 [Example 16, 3-[(3,5-Dimethoxy-phenylamino)-methylene]-1,3-dihydro-indol-2-one] | 1270 nM | 50% | ≥ 10000 nM | 
3 | Cc1cccc2c1C(=CNc1ccc(CO)cc1)C(=O)N2 [Example 99, 3-[(4-Hydroxymethyl-phenylamino)-methylene]-4-methyl-1,3-dihydro-indol-2-one] | 210 nM | 97.8% |  | 
4 | O=C1Nc2ccccc2C1=CNc1ccc(OCCCCCl)cc1 [Example 199, 3-{[4-(4-Chloro-butoxy)-phenylamino]-methylene}-1,3-dihydro-indol-2-one] | 290 nM | 32.4% |  | 
5 | COc1ccc(NC=C2C(=O)Nc3ccccc32)cc1 [Example 7, 3-[(4-Methoxy-phenylamino)-methylene]-1,3-dihydro-indol-2-one] | 690 nM | 94.5% | ≤ 1000 nM | 950 nM
6 | O=C1Nc2ccccc2C1=CNc1ccc2[nH]ccc2c1 [Example 31, 3-[(5-Indolylamino)-methylene]-1,3-dihydro-indol-2-one] | 570 nM | 98.6% | ≤ 1000 nM | 720 nM
7 | Cc1cccc2c1C(=CNc1cccc(O)c1)C(=O)N2 [Example 60, 3-[(3-Hydroxy-phenylarmino)-methylene]-4-methyl-1,3-dihydro-indol-2-one] | 280 nM | 94% | 1330 nM | 
8 | CCN(CC)Cc1cc(NC=C2C(=O)Nc3ccc(Cl)cc32)ccc1O [Example 109, 5-Chloro-3-[(4-hydoxy-3-(diethylaminomethyl)phenylamino)-methylene]-1,3-dihydro-indol-2-one] | 600 nM | 96.5% | 1700 nM | 

More lines, main results first:

Row | IC50 [2] | Compound | inhibition at 10 µM ([1]; Homo sapiens) | IC50 ([1]; Homo sapiens) | IC50 [1]
9 | 380 nM | COc1ccc(NC=C2C(=O)Nc3ccc(F)cc32)cc1O [Example 164, 5-Fluoro-3-[(3-hydroxy-4-methoxy-phenylamino)-methylene]-1,3-dihydro-indol-2-one] | 98.8% |  | 
10 | 210 nM | Cc1cccc2c1C(=CNc1cccc(CCC(=O)O)c1)C(=O)N2 [Example 142, 3-{3-[(4-Methyl-2-oxo-1,2-dihydro-indol-3-ylidenemethyl)-amino]-phenyl}-propionic acid] | 99.3% | 4160 nM | 
11 | 270 nM | O=C1Nc2ccc(Cl)cc2C1=CNc1ccc(CCN2CCOCC2)cc1 [Example 307, 5-Chloro-3-{[4-(2-morpholin-4-yl-ethyl)-phenylamino]-methylene}-1,3-dihydro-indol-2-one] |  | ≤ 1000 nM | 650 nM
12 | 2270 nM | O=C(O)Cc1ccc(NC=C2C(=O)Nc3ccccc32)cc1 [Example 224, 3-[(4-Carboxymethylphenylamino)-methylene]-1,3-dihydro-indol-2-one] | 56.2% | 6310 nM | 
13 | 510 nM | O=C1Nc2cccc(F)c2C1=CNc1ccc(CN2CCCCC2)cc1 [Example 257, 4-Fluoro-3-[(4-piperidin-1-ylmethyl-phenylamino)-methylene]-1,3-dihydro-indol-2-one] |  | 1630 nM | 
14 | 310 nM | O=C1Nc2ccccc2C1=CNc1ccc(OCCCN2CCC(F)C2)cc1 (stereo not shown) [Example 305, 3-({4-[3-(3-Fluoro-pyrrolidin-1-yl)-propoxy]-phenylamino}-methylene)-1,3-dihydro-indol-2-one] |  | ≤ 1000 nM | 550 nM
15 | 700 nM | Cc1cccc2c1C(=CNc1cccc(S(=O)(=O)N(CCO)CCO)c1)C(=O)N2 [Example 191, N,N-Bis-(2-hydroxy-ethyl)-3-[(4-methyl-2-oxo-1,2-dihydro-indol-3-ylidenemethyl)-amino]-benzenesulfonamide] | 98.7% | 2410 nM | 
16 | 670 nM | Cc1ccc(NC=C2C(=O)Nc3cccc(C)c32)cc1O [Example 125, 3-[(3-Hydroxy-4-methyl-phenylamino)-methylene]-4-methyl-1,3-dihydro-indol-2-one] | 96.5% | 1860 nM | 
